± gives the expanded uncertainty stated by the source.
How the values were obtained:
[1] = 101 kPa, Liquid; for speed of sound: Sing-around technique in a fixed-path interferometer
[2] = refractive index (Na D-line) (dimensionless); conditions: 101.33 kPa, Liquid
[3] = xn = mol fraction of the nth substance listed; conditions: 101 kPa, Liquid; for speed of sound: Sing-around technique in a fixed-path interferometer
[4] = refractive index (Na D-line) (dimensionless); xn = mol fraction of the nth substance listed; conditions: 101 kPa, Liquid

## CCCCC(CC)CO (centres undefined) [2-ethyl-1-hexanol]
[1]; 298.15 K
  mass density: 829.07 ± 0.82 kg/m3
  viscosity: 8.418 ± 0.65 mPa·s
  speed of sound: 1319 ± 10 m/s
[1]; 303.15 K
  mass density: 825.39 ± 0.83 kg/m3
  viscosity: 7.144 ± 0.57 mPa·s
  speed of sound: 1301 ± 10 m/s
[1]; 308.15 K
  mass density: 821.68 ± 0.84 kg/m3
  viscosity: 6.09 ± 0.5 mPa·s
  speed of sound: 1283 ± 10 m/s
[2]; 298.15 K
  refractive index: 1.4287 ± 0.0019
[2]; 303.15 K
  refractive index: 1.4266 ± 0.0019
[2]; 308.15 K
  refractive index: 1.4245 ± 0.0019

## CCCCC(CC)CO (centres undefined) [2-ethyl-1-hexanol] + Brc1ccccc1
[3]; 298.15 K, x2 = 0
  speed of sound: 1319 ± 10 m/s
  mass density: 829.07 ± 0.82 kg/m3
  viscosity: 8.418 ± 0.65 mPa·s
[3]; 303.15 K, x2 = 0
  speed of sound: 1301 ± 10 m/s
  mass density: 825.39 ± 0.83 kg/m3
  viscosity: 7.144 ± 0.57 mPa·s
[3]; 308.15 K, x2 = 0
  speed of sound: 1283 ± 10 m/s
  mass density: 821.68 ± 0.84 kg/m3
  viscosity: 6.09 ± 0.5 mPa·s
[4]; 298.15 K, x2 = 0
  refractive index: 1.4287 ± 0.0019
[4]; 303.15 K, x2 = 0
  refractive index: 1.4266 ± 0.0019
[4]; 308.15 K, x2 = 0
  refractive index: 1.4245 ± 0.0019

## c1ccccc1 [benzene]
[1]; 298.15 K
  mass density: 873.66 ± 0.66 kg/m3
  viscosity: 0.603 ± 0.065 mPa·s
  speed of sound: 1299 ± 10 m/s
[1]; 303.15 K
  mass density: 868.29 ± 0.68 kg/m3
  viscosity: 0.557 ± 0.061 mPa·s
  speed of sound: 1276 ± 10 m/s
[1]; 308.15 K
  mass density: 862.92 ± 0.69 kg/m3
  viscosity: 0.533 ± 0.059 mPa·s
  speed of sound: 1253 ± 10 m/s
[2]; 298.15 K
  refractive index: 1.4969 ± 0.0019
[2]; 303.15 K
  refractive index: 1.4949 ± 0.0019
[2]; 308.15 K
  refractive index: 1.4929 ± 0.0019

## c1ccccc1 [benzene] + CCCCC(CC)CO
[3]; 298.15 K, x1 = 1
  speed of sound: 1299 ± 10 m/s
  mass density: 873.66 ± 0.66 kg/m3
  viscosity: 0.603 ± 0.065 mPa·s
[3]; 303.15 K, x1 = 1
  speed of sound: 1276 ± 10 m/s
  mass density: 868.29 ± 0.68 kg/m3
  viscosity: 0.557 ± 0.061 mPa·s
[3]; 308.15 K, x1 = 1
  speed of sound: 1253 ± 10 m/s
  mass density: 862.92 ± 0.69 kg/m3
  viscosity: 0.533 ± 0.059 mPa·s
[4]; 298.15 K, x1 = 1
  refractive index: 1.4969 ± 0.0019
[4]; 303.15 K, x1 = 1
  refractive index: 1.4949 ± 0.0019
[4]; 308.15 K, x1 = 1
  refractive index: 1.4929 ± 0.0019

## Brc1ccccc1 [bromobenzene]
[1]; 298.15 K
  mass density: 1488.12 ± 2.2 kg/m3
  viscosity: 1.065 ± 0.1 mPa·s
  speed of sound: 1153 ± 10 m/s
[1]; 303.15 K
  mass density: 1481.4 ± 2.2 kg/m3
  viscosity: 1.005 ± 0.099 mPa·s
  speed of sound: 1138 ± 10 m/s
[1]; 308.15 K
  mass density: 1474.58 ± 2.2 kg/m3
  viscosity: 0.972 ± 0.096 mPa·s
  speed of sound: 1122 ± 10 m/s
[2]; 298.15 K
  refractive index: 1.557 ± 0.0019
[2]; 303.15 K
  refractive index: 1.555 ± 0.0019
[2]; 308.15 K
  refractive index: 1.553 ± 0.0019

## Clc1ccccc1 [chlorobenzene]
[1]; 298.15 K
  mass density: 1101.03 ± 1.1 kg/m3
  viscosity: 0.767 ± 0.079 mPa·s
  speed of sound: 1268 ± 10 m/s
[1]; 303.15 K
  mass density: 1095.52 ± 1.1 kg/m3
  viscosity: 0.716 ± 0.074 mPa·s
  speed of sound: 1249 ± 10 m/s
[1]; 308.15 K
  mass density: 1090.2 ± 1.1 kg/m3
  viscosity: 0.66 ± 0.069 mPa·s
  speed of sound: 1231 ± 10 m/s
[2]; 298.15 K
  refractive index: 1.524 ± 0.002
[2]; 303.15 K
  refractive index: 1.521 ± 0.002
[2]; 308.15 K
  refractive index: 1.518 ± 0.002

## Clc1ccccc1 [chlorobenzene] + CCCCC(CC)CO
[3]; 298.15 K, x1 = 1
  speed of sound: 1268 ± 10 m/s
  mass density: 1101.03 ± 1.1 kg/m3
  viscosity: 0.767 ± 0.079 mPa·s
[3]; 303.15 K, x1 = 1
  speed of sound: 1249 ± 10 m/s
  mass density: 1095.52 ± 1.1 kg/m3
  viscosity: 0.716 ± 0.074 mPa·s
[3]; 308.15 K, x1 = 1
  speed of sound: 1231 ± 10 m/s
  mass density: 1090.2 ± 1.1 kg/m3
  viscosity: 0.66 ± 0.069 mPa·s
[4]; 298.15 K, x1 = 1
  refractive index: 1.524 ± 0.002
[4]; 303.15 K, x1 = 1
  refractive index: 1.521 ± 0.002
[4]; 308.15 K, x1 = 1
  refractive index: 1.518 ± 0.002

Source: the NIST ThermoML archive (doi:10.1007/s10765-013-1526-8)
